Measured values published in the NIST ThermoML archive (doi:10.1016/j.fluid.2005.11.016).

Tests used:
[1] = Liquid
[2] = excess molar enthalpy (molar enthalpy of mixing); xn = mol fraction of the nth substance listed; conditions: 303.15 K, 101 kPa, Liquid, Calvet calorimetry

Cc1cccc(C)n1 [2,6-dimethylpyridine]
[1]
Conditions	vapor or sublimation pressure [kPa]
263.15 K	0.065
273.15 K	0.143
283.15 K	0.296
293.15 K	0.575
303.15 K	1.061
313.15 K	1.868
323.15 K	3.154
333.15 K	5.129
343.15 K	8.066
353.15 K	12.31

Cc1cccc(C)n1 [2,6-dimethylpyridine] + Cc1ccccc1
[2]
Conditions	excess molar enthalpy [kJ/mol]
x1 = 0.0145	0.062
x1 = 0.2129	0.083
x1 = 0.2993	0.085
x1 = 0.3406	0.088
x1 = 0.434	0.086
x1 = 0.4479	0.087
x1 = 0.5547	0.08
x1 = 0.5885	0.076
x1 = 0.6718	0.07
x1 = 0.7056	0.068
x1 = 0.7248	0.064
x1 = 0.7746	0.05
x1 = 0.8563	0.035

Cc1cncc(C)c1 [3,5-dimethylpyridine]
[1]
Conditions	vapor or sublimation pressure [kPa]
263.15 K	0.016
273.15 K	0.038
283.15 K	0.083
293.15 K	0.169
303.15 K	0.325
313.15 K	0.596
323.15 K	1.049
333.15 K	1.775
343.15 K	2.904
353.15 K	4.603

Cc1cncc(C)c1 [3,5-dimethylpyridine] + Cc1ccccc1
[2]
Conditions	excess molar enthalpy [kJ/mol]
x1 = 0.1248	0.055
x1 = 0.1817	0.068
x1 = 0.2194	0.078
x1 = 0.3217	0.09
x1 = 0.4079	0.106
x1 = 0.5991	0.11
x1 = 0.6191	0.107

Cc1ccccc1 [toluene]
[1]
Conditions	vapor or sublimation pressure [kPa]
263.15 K	0.468
273.15 K	0.908
283.15 K	1.666
293.15 K	2.911
303.15 K	4.873
313.15 K	7.852
323.15 K	12.23
333.15 K	18.46
343.15 K	27.12
353.15 K	38.87
